Calls of active or inactive are those of the source.
How the values were obtained:
Type in all cases: functional
Protein skinhead-1 = target: T1, Protein skinhead-1 (Caenorhabditis elegans, UniProt P34707)
T1 sequence (P34707 whole entry): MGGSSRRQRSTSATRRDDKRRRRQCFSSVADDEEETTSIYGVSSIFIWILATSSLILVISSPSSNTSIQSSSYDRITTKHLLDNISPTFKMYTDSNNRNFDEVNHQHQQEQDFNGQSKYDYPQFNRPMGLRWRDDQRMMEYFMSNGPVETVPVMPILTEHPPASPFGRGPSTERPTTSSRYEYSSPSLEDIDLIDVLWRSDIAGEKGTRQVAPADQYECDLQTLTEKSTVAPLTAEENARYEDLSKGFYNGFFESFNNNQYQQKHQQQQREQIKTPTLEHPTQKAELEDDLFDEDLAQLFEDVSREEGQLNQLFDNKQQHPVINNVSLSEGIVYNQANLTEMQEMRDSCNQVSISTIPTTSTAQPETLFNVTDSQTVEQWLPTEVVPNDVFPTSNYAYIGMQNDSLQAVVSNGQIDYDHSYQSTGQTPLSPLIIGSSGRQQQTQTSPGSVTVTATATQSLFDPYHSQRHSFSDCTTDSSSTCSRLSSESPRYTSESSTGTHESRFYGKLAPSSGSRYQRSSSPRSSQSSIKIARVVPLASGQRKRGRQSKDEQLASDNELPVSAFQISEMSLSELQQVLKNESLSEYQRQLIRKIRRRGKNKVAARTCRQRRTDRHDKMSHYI

[1] = target: T2, Type-1 angiotensin II receptor (Homo sapiens, UniProt P30556); experiment: antagonism of angiotensin II type 1 receptor – cell-based, uHTS hits, selectivity assay for APJ receptor antagonist project, dose response (AID 463214);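 also: antagonist potency against angiotensin II stimulated AT1 response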
T2 sequence (P30556 whole entry): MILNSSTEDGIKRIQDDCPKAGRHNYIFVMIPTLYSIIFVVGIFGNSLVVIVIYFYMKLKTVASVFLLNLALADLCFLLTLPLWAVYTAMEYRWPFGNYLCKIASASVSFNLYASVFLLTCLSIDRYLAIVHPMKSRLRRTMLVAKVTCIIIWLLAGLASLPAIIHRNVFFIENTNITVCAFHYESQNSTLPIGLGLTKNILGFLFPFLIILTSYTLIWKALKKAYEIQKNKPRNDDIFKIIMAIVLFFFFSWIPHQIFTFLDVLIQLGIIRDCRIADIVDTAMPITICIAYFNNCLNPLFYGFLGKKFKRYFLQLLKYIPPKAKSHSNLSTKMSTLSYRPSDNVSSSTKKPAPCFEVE

Beta-galactosidase = Beta-galactosidase (Escherichia coli, UniProt Q8VNN2); experiment: PubChem AID 485352
Chain of Beta-galactosidase (Q8VNN2 whole entry): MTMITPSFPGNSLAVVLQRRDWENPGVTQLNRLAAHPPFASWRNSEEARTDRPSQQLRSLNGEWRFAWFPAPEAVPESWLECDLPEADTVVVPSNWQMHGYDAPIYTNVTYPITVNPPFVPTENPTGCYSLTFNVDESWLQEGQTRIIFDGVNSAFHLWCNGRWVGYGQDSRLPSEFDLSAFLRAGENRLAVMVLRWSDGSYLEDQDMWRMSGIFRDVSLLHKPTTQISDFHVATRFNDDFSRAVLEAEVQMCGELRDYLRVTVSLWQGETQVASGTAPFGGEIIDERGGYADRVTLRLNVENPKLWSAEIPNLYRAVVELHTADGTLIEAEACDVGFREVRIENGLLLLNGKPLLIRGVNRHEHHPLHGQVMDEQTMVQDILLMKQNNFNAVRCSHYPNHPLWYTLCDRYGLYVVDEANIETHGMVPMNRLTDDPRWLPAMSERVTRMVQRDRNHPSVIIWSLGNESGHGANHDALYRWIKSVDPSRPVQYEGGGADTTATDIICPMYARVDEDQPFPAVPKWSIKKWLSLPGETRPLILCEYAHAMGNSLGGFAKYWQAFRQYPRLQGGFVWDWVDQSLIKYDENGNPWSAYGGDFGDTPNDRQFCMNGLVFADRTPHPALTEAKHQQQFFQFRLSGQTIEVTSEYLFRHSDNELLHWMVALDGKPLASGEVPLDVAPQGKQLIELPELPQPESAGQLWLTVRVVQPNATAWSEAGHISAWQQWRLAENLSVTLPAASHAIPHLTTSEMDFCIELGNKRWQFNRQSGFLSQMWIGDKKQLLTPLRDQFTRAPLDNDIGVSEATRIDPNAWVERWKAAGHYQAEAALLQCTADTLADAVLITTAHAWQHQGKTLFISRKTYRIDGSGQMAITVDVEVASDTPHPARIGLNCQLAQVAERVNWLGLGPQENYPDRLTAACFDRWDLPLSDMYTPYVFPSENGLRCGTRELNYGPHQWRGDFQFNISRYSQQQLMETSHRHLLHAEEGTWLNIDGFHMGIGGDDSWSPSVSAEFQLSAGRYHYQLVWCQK

- IC50 (Protein skinhead-1): > 100 µM (inactive)
- IC50 [1]: 13.5 µM (active)
- EC50 (Beta-galactosidase): > 40 µM (inactive)
Compound: O=C(CNc1ccc(Br)cc1)c1ccccc1

— ChEMBL document CHEMBL1201862, “PubChem BioAssay data set” (2004)
